Test results: PubChem BioAssay AID330 (DTP/NCI, 2004)
“And” between values parts separate entries of the source, which are not always exact repeats. Equal entries are not always repeated. Toxic doses and inconclusive results are not listed. The calls were made as follows: active = survival T/C of 150% or more; inactive = T/C below 125% in these data.

Test system: P388 leukemia ip, CD2F1 mice, survival T/C
Test: NCI In Vivo Anticancer Drug Screen. Data for tumor model P388 Leukemia (intraperitoneal) in CD2F1 (CDF1) mice
Conditions: endpoint: median survival time, higher = longer survival
In short: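 Mice carrying the transplanted tumor received test compound or vehicle. Survival was recorded in each group, and the value is the treated-group measurement divided by that of the vehicle-treated control group.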

[1] = dose: 12.5 mg/kg/injection, schedule: Q01DX009 (ip), vehicle: saline
[2] = dose: 25.0 mg/kg/injection, schedule: Q01DX009 (ip), vehicle: saline
[3] = dose: 50.0 mg/kg/injection, schedule: Q01DX009 (ip), vehicle: saline
[4] = dose: 200.0 mg/kg/injection, schedule: Q01DX009 (ip), vehicle: saline
[5] = dose: 50.0 mg/kg/injection, schedule: Q01DX005 (ip), vehicle: Klucel (hydroxypropylcellulose) (HPC)
[6] = dose: 100.0 mg/kg/injection, schedule: Q01DX005 (ip), vehicle: Klucel (hydroxypropylcellulose) (HPC)
[7] = dose: 200.0 mg/kg/injection, schedule: Q01DX005 (ip), vehicle: Klucel (hydroxypropylcellulose) (HPC)
[8] = dose: 50.0 mg/kg/injection, schedule: Q01DX009 (ip), vehicle: saline with Tween-80
[9] = dose: 100.0 mg/kg/injection, schedule: Q04DX002 (ip), vehicle: saline
[10] = dose: 200.0 mg/kg/injection, schedule: Q04DX002 (ip), vehicle: saline
[11] = dose: 400.0 mg/kg/injection, schedule: Q04DX002 (ip), vehicle: saline
[12] = dose: 100.0 mg/kg/injection, schedule: Q01DX009 (ip), vehicle: saline with Tween-80
[13] = dose: 12.5 mg/kg/injection, schedule: Q01DX009 (ip), vehicle: saline with Tween-80
[14] = dose: 25.0 mg/kg/injection, schedule: Q01DX009 (ip), vehicle: saline with Tween-80
[15] = dose: 100.0 mg/kg/injection, schedule: Q04DX002 (ip), vehicle: saline with Tween-80
[16] = dose: 200.0 mg/kg/injection, schedule: Q04DX002 (ip), vehicle: saline with Tween-80
[17] = dose: 400.0 mg/kg/injection, schedule: Q04DX002 (ip), vehicle: saline with Tween-80
[18] = dose: 60.0 mg/kg/injection, schedule: Q01DX005 (ip), vehicle: saline with Tween-80
[19] = dose: 120.0 mg/kg/injection, schedule: Q01DX005 (ip), vehicle: saline with Tween-80
[20] = dose: 240.0 mg/kg/injection, schedule: Q01DX005 (ip), vehicle: saline with Tween-80
[21] = dose: 100.0 mg/kg/injection, schedule: Q01DX009 (ip), vehicle: saline
[22] = dose: 100.0 mg/kg/injection, schedule: Q04DX003 (ip), vehicle: saline

Measured: T/C

C=C(Cl)CNc1ccccc1C(=O)OC
inactive: dose: 25.0 mg/kg/injection, schedule: Q04DX003 (ip), vehicle: Klucel (hydroxypropylcellulose) (HPC) 100 % of control | dose: 50.0 mg/kg/injection, schedule: Q04DX003 (ip), vehicle: Klucel (hydroxypropylcellulose) (HPC) 100 % of control and 103 % of control | dose: 100.0 mg/kg/injection, schedule: Q04DX003 (ip), vehicle: Klucel (hydroxypropylcellulose) (HPC) 100 % of control and 110 % of control | dose: 200.0 mg/kg/injection, schedule: Q04DX003 (ip), vehicle: Klucel (hydroxypropylcellulose) (HPC) 103 % of control and 106 % of control | dose: 400.0 mg/kg/injection, schedule: Q04DX003 (ip), vehicle: Klucel (hydroxypropylcellulose) (HPC) 100 % of control and 108 % of control

CC(=O)/C=C(\C)Nc1ccccc1
inactive: [1] 106 % of control | [2] 102 % of control | [3] 91 % of control and 97 % of control | [4] 97 % of control

O=S(=O)(Nc1cccc(NS(=O)(=O)c2ccccc2)n1)c1ccccc1
inactive: dose: 50.0 mg/kg/injection, schedule: Q01DX001 (ip), vehicle: saline with Tween-80 91 % of control | dose: 100.0 mg/kg/injection, schedule: Q01DX001 (ip), vehicle: saline with Tween-80 91 % of control | dose: 200.0 mg/kg/injection, schedule: Q01DX001 (ip), vehicle: saline with Tween-80 91 % of control

O=C1OC(c2ccccc2)=N/C1=C/c1cccn(-c2ccccc2)c1=S
inactive: [5] 94 % of control | [6] 87 % of control | [7] 86 % of control

CCC1CN2CCc3cc(OC)c(OC)cc3C2CC1Cl (centres undefined)
inactive: [1] 90 % of control | [2] 90 % of control | [8] 101 % of control | [3] 96 % of control

CC(C)c1ccc(/C(O)=C/C(=O)C(=O)/C=C(/O)c2ccc(C(C)C)cc2)cc1
inactive: [9] 100 % of control | [10] 100 % of control | [11] 99 % of control

CC(=O)C1(O)CCCC(OC2CC(N)C(O)C(C)O2)C1 (centres undefined)
inactive: dose: 6.25 mg/kg/injection, schedule: Q01DX009 (ip), vehicle: water 100 % of control | dose: 12.5 mg/kg/injection, schedule: Q01DX009 (ip), vehicle: water 95 % of control | dose: 25.0 mg/kg/injection, schedule: Q01DX009 (ip), vehicle: water 104 % of control | dose: 50.0 mg/kg/injection, schedule: Q01DX009 (ip), vehicle: water 113 % of control | dose: 100.0 mg/kg/injection, schedule: Q01DX009 (ip), vehicle: water 113 % of control

CC(=O)[C@H]1CC[C@H]2[C@@H]3C[C@H](C)C4=CC(=O)CC[C@]4(C)[C@H]3C(=O)C[C@]12C
inactive: [12] 100 % of control | dose: 200.0 mg/kg/injection, schedule: Q01DX009 (ip), vehicle: saline with Tween-80 109 % of control | dose: 400.0 mg/kg/injection, schedule: Q01DX009 (ip), vehicle: saline with Tween-80 104 % of control

COc1ccc(Nc2ncnc3ccccc23)cc1CN(CCCl)CCCl
inactive: dose: 100.0 mg/kg/injection, schedule: Q01DX001 (ip), vehicle: Klucel (hydroxypropylcellulose) (HPC) 100 % of control | dose: 200.0 mg/kg/injection, schedule: Q01DX001 (ip), vehicle: Klucel (hydroxypropylcellulose) (HPC) 90 % of control

CC(=O)CC(=NC(C)(C)C)Nc1ncc(Cl)c2ccccc12
inactive: dose: 50.0 mg/kg/injection, schedule: Q01DX005 (ip), vehicle: saline with Tween-80 94 % of control | dose: 100.0 mg/kg/injection, schedule: Q01DX005 (ip), vehicle: saline with Tween-80 92 % of control | dose: 200.0 mg/kg/injection, schedule: Q01DX005 (ip), vehicle: saline with Tween-80 97 % of control

CC12CC[C]([Hg][I])(CC1)C2(C)C
inactive: dose: 6.25 mg/kg/injection, schedule: Q01DX009 (ip), vehicle: saline with Tween-80 105 % of control | [13] 112 % of control | [14] 107 % of control

COC12CC(C)(C)OC1C(C)C1C(CC3(C)C4CC=C5C(C=C(O)C(=O)C5(C)C)C4(C)C(=O)CC13C)O2 (centres undefined)
inactive: [9] 100 % of control | [10] 100 % of control | [11] 100 % of control

Cc1nc(Cl)c2[nH]c(Cl)nc2n1
inactive: [5] 102 % of control | [6] 102 % of control | [7] 100 % of control

O=c1cc(CCc2ccccc2)c2ccccc2[nH]1
inactive: [15] 94 % of control | [16] 94 % of control | [17] 95 % of control

C=C(CO)CC(CC(=C)CCS(=O)(=O)c1ccccc1)S(=O)(=O)c1ccccc1 (centres undefined)
inactive: [18] 94 % of control | [19] 106 % of control | [20] 100 % of control

CC1=CCC(CC2CO2)C1(C)C (centres undefined)
inactive: [3] 101 % of control | [21] 108 % of control

CC(C)(C)N(C/C=C/CN(Cc1ccccc1)Cc1ccccc1)C(C)(C)C
inactive: [8] 87 % of control | [12] 95 % of control

COC(=O)c1ccc(C(=S)OC)cc1
inactive: [15] 108 % of control | [16] 100 % of control | [17] 101 % of control

CCOCc1nc(N)nc(N)c1-c1cccc(Cl)c1
inactive: [18] 100 % of control | [19] 102 % of control

CCCC(O)C[N+](=O)[O-] (centres undefined)
inactive: [22] 109 % of control | dose: 200.0 mg/kg/injection, schedule: Q04DX003 (ip), vehicle: saline 109 % of control | dose: 400.0 mg/kg/injection, schedule: Q04DX003 (ip), vehicle: saline 118 % of control

O=c1[nH]c2ncccc2c(O)c1-c1ccccc1
inactive: [3] 107 % of control | [21] 96 % of control | [4] 96 % of control

CC1OC(=O)C(C2OC2C)=CC1O (centres undefined)
inactive: dose: 50.0 mg/kg/injection, schedule: Q01DX005 (ip), vehicle: saline 97 % of control | dose: 100.0 mg/kg/injection, schedule: Q01DX005 (ip), vehicle: saline 105 % of control | dose: 200.0 mg/kg/injection, schedule: Q01DX005 (ip), vehicle: saline 105 % of control

O=CC1=CSC(=C2SC=CS2)S1
inactive: dose: 15.0 mg/kg/injection, schedule: Q01DX005 (ip), vehicle: Klucel + Tween-80 95 % of control | dose: 30.0 mg/kg/injection, schedule: Q01DX005 (ip), vehicle: Klucel + Tween-80 87 % of control | dose: 60.0 mg/kg/injection, schedule: Q01DX005 (ip), vehicle: Klucel (hydroxypropylcellulose) (HPC) 101 % of control | dose: 60.0 mg/kg/injection, schedule: Q01DX005 (ip), vehicle: Klucel + Tween-80 106 % of control

CCC(NCC(C)C)NCC(C)C
inactive: dose: 25.0 mg/kg/injection, schedule: Q04DX003 (ip), vehicle: saline 100 % of control | dose: 50.0 mg/kg/injection, schedule: Q04DX003 (ip), vehicle: saline 109 % of control | [22] 95 % of control

O=c1cc(-c2ccccc2)[nH]c2[nH]n(-c3ccccc3)c(=O)c12
inactive: [18] 110 % of control | [19] 104 % of control | [20] 94 % of control

NS(=O)(=O)c1ccc(NCc2cnc3ccccc3n2)cc1
inactive: dose: 5.0 mg/kg/injection, schedule: Q01DX009 (ip), vehicle: saline 87 % of control | dose: 10.0 mg/kg/injection, schedule: Q01DX009 (ip), vehicle: saline 94 % of control | dose: 20.0 mg/kg/injection, schedule: Q01DX009 (ip), vehicle: saline 94 % of control

COC1=C(OC)C(=O)C(OC)=C(OC)C1=O
inactive: [13] 106 % of control | [14] 98 % of control | [8] 104 % of control
